In experiment [1] the test system is LDLR. Kind of experiment: LDLR immunohistochemistry in ileum and jejunum of mice fed DON. The experiment is classed as in vivo. The following applies: 25 mg/kg DON oral feeding, after 24 hours, IHC, FIG. 12. The method, then: Further, additional animal studies were performed to determine whether ribosome-inactivation stress increases a level of LDLR expression in the small intestine. Six-week-old male B6C3F1 mice (C57B1/6J×C3H/HeJ) were purchased from Samtako Bio Korea (Osan, South Korea). Animal experiments were performed according to the animal test method as approved in the Laboratory Animal Care Committee (PNU-2010-0291). Vehicle or 25 mg/kg DON was administered to the mice via oral feeding. After 24 hours, immunohistochemistry (IHC) was performed on ileum and jejunum to measure LDLR expression levels. The results are illustrated in FIG. 12.

Experiment [2] has as its system LDLR. As to the kind of experiment: mRNA level of LDLR in HepG2 cells, real-time RT-PCR. The experiment is classed as cell-based, human. The following applies: HepG2 cells, 100, 500, 1000 ng/ml DON or 500, 1000, 2000 nM ANS, 1 hour, dose dependent, FIG. 11. Background: Quantitative PCR measures a nucleic acid by following its amplification.
For experiment [3], the system named is LDLR. Kind of experiment: Protein level of LDLR in HCT-8 cells, Western blot. The format is cell-based, human. The following applies: whole cell lysates, FIG. 9. The protocol: Further, HCT-8 cells were treated with vehicle or 1000 ng/ml DON for the indicated time. Thereafter, protein levels of LDLR were measured using whole cell lysates via Western blots. Specifically, the cells were washed with phosphate buffer. Subsequently, the cells were dissolved in lysis buffer (1% [w/v] SDS, 1.0 mM sodium orthovanadate, and 10 mM Tris [pH 7.4]). The lysate was sonicated for 5 seconds. The lysate was quantitated using the BCA protein assay kit (Pierce, Rockford, Ill., USA). Subsequently, immunoblotting was carried out to confirm the level of the protein in the cells. The results are illustrated in FIG. 9.

In experiment [4] the test system is HCT-8 cells. As to the kind of experiment: Lipid droplets in HCT-8 cells, Oil Red O staining. The experiment is classed as cell-based, human. The following applies: 1000 mg/ml DON or 2 μM ANS, 24 h, FIG. 2. The method, then:
To confirm the effect of ribosome inactivation on fat accumulation, enterocyte and hepatocyte exposed to ribosome inactivation stress using the ribosome-binding agent were stained with Oil Red O.
Specifically, HCT-8 cells and HepG2 cells were obtained from the American Type Culture Collection (ATCC Rockville, Md., USA). HCT-8 and HepG2 cells were treated with vehicle, […], or 2 μM anisomycin (ANS) for 24 h. […] The staining results of HCT-8 cells are illustrated in FIG. 2 and the staining results of HepG2 cells are illustrated in FIG. 3.

For experiment [5], the system named is LDLR. As to the kind of experiment: mRNA level of LDLR in HCT-8 cells, real-time RT-PCR. The format is cell-based, human. The following applies: HCT-8 cells, 100, 500, 1000 ng/ml DON or 500, 1000, 2000 nM ANS, 2 hours, dose dependent, FIG. 10. The protocol: Further, HCT-8 cells were treated with vehicle or 1000 ng/ml DON for the indicated time. In these treated cells, an mRNA level of LDLR was measured using real-time RT-PCR. Specifically, RNA was extracted using RiboEX (GeneAll Biotechnology, Seoul, Korea). Subsequently, the RNA (100 ng) from each sample was transcribed into cDNA using Prime Moloney murine leukemia virus reverse transcriptase (Genetbio, Nonsan, South Korea). The cDNA was then amplified using n-Taq DNA polymerase (Enzynomics, Seoul, South Korea). The amplified cDNA was treated at 95° C. for 2 minutes. The cDNA was then treated for 30 seconds at 95° C., for 30 seconds at 58° C. and for 30 seconds at 72° C. at each of different cycles. The thus treated cDNA was amplified and the amplification thereof was confirmed by electrophoresis. FAM was used as a fluorescent reporter staining drug. FAM was conjugated to a 5′ terminal of a product of the amplified cDNA. The resulting product was subjected to real-time RT-PCR using an iCycler thermal cycler (Bio-Rad). […]
Additionally, to determine the effect of chemical ribosome inactivators (DON, ANS) at different doses on the LDLR expression level, HCT-8 cells were treated with vehicle, 0, 100, 500, 1000 ng/ml DON or 0, 500, 1000, 2000 nM ANS for 2 hours. Then, mRNA levels of LDLR in the cells were measured using real-time RT-PCR. […] The mRNA level of the LDLR of the cells was measured. […]

Turning to `CC1=C[C@H]2O[C@@H]3[C@H](O)C[C@](C)([C@@]2(CO)[C@H](O)C1=O)[C@]31CO1` [DON, deoxynivalenol], in experiment [1], the “level of LDLR expression in the mouse small intestine (villus epithelium of ileum and jejunum)” value was “increase”. Besides, the “mRNA level of LDLR” value in experiment [2] and in experiment [5] was “increases” each time. Moreover, the “protein levels of LDLR” value in experiment [3] is recorded as “increases”. Besides, in experiment [4], the “fat accumulation in HCT-8 cells” value is given as “dose-dependently increased”.
For `COc1ccc(C[C@H]2NC[C@H](O)[C@H]2OC(C)=O)cc1` [ANS, anisomycin], the “mRNA level of LDLR” value in experiment [2] and in experiment [5] was “increases” each time. Moreover, in experiment [3], the “protein levels of LDLR” value was “increases”. In addition, the “fat accumulation in HCT-8 cells” value in experiment [4] is given as “dose-dependently increased”.

The record behind these values is patent US10799477B2, “Pharmaceutical composition for preventing or treating LDL cholesterol-related diseases, containing ribosome-binding preparation” (PUSAN NATIONAL UNIVERSITY INDUSTRY UNIVERSITY, priority 2016, dated 2020).
